Laboratory results as given in PMC3437750 (Journal of medicinal chemistry, 2011).

Experiments:
purified human PMM2 = biological target: T1, purified human PMM2 (Homo sapiens, UniProt O15305); experiment: PMM2 in vitro enzymatic concentration-response assay; type: biochemical; settings: tested up to 20 µM where stated
T1 sequence (O15305 1-246): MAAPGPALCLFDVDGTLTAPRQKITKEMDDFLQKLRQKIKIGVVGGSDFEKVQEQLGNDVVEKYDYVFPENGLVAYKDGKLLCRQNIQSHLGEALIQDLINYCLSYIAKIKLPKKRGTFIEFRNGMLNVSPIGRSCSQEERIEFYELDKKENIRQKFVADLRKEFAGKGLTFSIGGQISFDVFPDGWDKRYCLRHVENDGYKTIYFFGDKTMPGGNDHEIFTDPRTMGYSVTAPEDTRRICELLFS

[1] = Glutathione conjugation assay; settings: 10 µM, 2 mg/mL rat hepatic S9, 10 mM glutathione, 37°C, 2 hours
[2] = Parallel Artificial Membrane Permeation Assay; type: in vitro ADME; settings: assessed in vitro, PAMPA
purified human PMI = biological target: T2, purified human PMI (Homo sapiens, UniProt P34949); type: biochemical
T2 sequence (P34949 1-423): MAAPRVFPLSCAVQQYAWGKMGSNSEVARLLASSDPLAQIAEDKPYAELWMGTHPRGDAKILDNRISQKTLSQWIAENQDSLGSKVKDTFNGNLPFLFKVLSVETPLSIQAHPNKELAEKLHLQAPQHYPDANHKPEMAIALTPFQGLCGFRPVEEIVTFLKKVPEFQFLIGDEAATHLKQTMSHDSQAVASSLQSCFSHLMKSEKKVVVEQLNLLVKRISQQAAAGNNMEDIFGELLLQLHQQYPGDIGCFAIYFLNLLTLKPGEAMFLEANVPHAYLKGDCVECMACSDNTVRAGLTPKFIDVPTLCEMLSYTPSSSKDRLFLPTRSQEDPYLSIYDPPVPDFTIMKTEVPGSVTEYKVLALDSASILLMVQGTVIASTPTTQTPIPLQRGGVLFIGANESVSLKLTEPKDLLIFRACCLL

Row | Compound | PMM2 inhibition (in words) (purified human PMM2) | GSH adduct formation by LCMS (in words) [1] | also measured
1 | O=c1c2ccccc2sn1-c1ccccc1 [Compound 1, 2-Phenyl-2-hydrobenzo[d]isothiazol-3-one] | selective for PMI over PMM2 |  | 
2 | Cc1ccc(C)c(-n2sc3ccccc3c2=O)c1 [Compound 16, 2-(2,5-dimethylphenyl) benzo[d]isothiazol-3(2H)-one] | a measurable inhibition of PMM2 was observed |  | 
3 | O=C(O)Cc1ccccc1Nc1c(Cl)cccc1Cl [diclofenac, reference compound] |  | showed the expected conjugate masses | 
4 | O=c1c2cc(F)ccc2sn1-c1ccccc1 [Compound 19, 5-Fluoro-2-phenylbenzo[d]isothiazol-3(2H)-one] |  | no GSH adducts were observed | predicted permeability (in words) [2]: moderately permeable
5 | O=c1c2ccccc2sn1-c1ccc(C(F)(F)F)cc1 [Compound 6, 2-[4-(Trifluoromethyl)phenyl]-2-hydrobenzo[d]isothiazol-3-one] | inactive against both enzymes |  | PMI inhibition (in words) (purified human PMI): inactive against both enzymes; cellular toxicity (35S-Met/Cys incorporation, in words) (Hela cells): exhibits cellular toxicity
